In PMC2735267 (Neuropharmacology, 2009):
Like-named read-outs stand apart in the source and are kept apart here.

Tests used:
[1] = test system: human α3β4-nAChR; details: Xenopus oocytes; ref Abin-Carriquiry et al., 2006; cited from earlier work
[2] = test system: DBA/2J mice; assay: 3-IC-induced hypothermia; format: in vivo, mouse
[3] = test system: C57BL/6J mice; assay: 3-IC-induced hypothermia; format: in vivo, mouse
[4] = target: α7-nAChR (Mus musculus, UniProt P49582); assay: biochemical; format: binding, C57BL/6J mice
α7-nAChR, sequence (P49582 23-502): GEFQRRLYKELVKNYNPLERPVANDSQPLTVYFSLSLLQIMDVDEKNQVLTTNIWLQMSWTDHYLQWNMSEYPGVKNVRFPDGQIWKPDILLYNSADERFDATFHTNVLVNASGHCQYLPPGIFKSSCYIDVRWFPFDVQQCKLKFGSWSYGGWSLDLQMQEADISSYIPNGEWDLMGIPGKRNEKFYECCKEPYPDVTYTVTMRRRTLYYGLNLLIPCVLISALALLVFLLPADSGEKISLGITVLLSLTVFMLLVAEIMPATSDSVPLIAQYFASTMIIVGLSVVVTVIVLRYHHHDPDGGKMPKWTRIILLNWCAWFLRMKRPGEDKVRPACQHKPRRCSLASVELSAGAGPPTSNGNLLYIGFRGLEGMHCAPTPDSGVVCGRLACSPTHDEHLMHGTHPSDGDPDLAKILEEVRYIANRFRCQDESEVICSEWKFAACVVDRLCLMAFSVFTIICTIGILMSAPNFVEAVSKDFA

[5] = test system: [125I]epibatidine binding sites (β2*- and β4*-nAChR); design: species or system C57BL/6J mice; details: inferior colliculus, wild-type
[6] = test system: α7* nAChR binding sites; details: ten days 2 mg/kg/h nicotine, DBA/2J, ref Pauly et al., 1991, cited from earlier work
[7] = target: β4*-nAChR (Mus musculus, UniProt Q8R493+Q8R4G9); assay: biochemical; format: binding, C57BL/6J mice
β4*-nAChR (Mus musculus, UniProt Q8R493+Q8R4G9), sequence (Q8R493 21-495): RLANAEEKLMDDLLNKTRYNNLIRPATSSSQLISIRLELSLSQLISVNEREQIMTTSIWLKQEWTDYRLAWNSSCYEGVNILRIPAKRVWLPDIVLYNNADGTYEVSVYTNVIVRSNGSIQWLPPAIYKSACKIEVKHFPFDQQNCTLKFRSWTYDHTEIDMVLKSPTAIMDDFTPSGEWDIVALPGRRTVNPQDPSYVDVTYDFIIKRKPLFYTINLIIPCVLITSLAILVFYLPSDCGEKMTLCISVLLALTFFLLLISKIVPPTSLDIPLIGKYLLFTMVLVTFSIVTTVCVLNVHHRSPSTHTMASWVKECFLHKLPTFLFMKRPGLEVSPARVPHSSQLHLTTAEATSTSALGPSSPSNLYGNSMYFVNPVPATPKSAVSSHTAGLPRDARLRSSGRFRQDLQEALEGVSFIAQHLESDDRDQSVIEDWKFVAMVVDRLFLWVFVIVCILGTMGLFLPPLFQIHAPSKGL
β4*-nAChR (Mus musculus, UniProt Q8R493+Q8R4G9), sequence (Q8R4G9 26-499): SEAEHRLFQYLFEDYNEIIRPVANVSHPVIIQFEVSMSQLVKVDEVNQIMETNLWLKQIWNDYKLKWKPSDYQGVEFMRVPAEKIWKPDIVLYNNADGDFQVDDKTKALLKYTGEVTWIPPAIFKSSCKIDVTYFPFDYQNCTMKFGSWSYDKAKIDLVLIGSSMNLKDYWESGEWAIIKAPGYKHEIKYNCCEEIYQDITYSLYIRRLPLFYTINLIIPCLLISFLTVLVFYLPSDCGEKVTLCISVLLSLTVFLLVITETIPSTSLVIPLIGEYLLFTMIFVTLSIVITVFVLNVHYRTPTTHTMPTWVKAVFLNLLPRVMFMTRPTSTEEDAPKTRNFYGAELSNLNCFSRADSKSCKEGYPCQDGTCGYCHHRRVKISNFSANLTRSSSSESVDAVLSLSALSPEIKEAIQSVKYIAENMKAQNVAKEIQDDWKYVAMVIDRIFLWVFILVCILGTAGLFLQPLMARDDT

[8] = target: β2*-nAChR (Mus musculus, UniProt O70174+Q9ERK7); assay: biochemical; format: binding, C57BL/6J mice
β2*-nAChR (Mus musculus, UniProt O70174+Q9ERK7), sequence (O70174 31-629): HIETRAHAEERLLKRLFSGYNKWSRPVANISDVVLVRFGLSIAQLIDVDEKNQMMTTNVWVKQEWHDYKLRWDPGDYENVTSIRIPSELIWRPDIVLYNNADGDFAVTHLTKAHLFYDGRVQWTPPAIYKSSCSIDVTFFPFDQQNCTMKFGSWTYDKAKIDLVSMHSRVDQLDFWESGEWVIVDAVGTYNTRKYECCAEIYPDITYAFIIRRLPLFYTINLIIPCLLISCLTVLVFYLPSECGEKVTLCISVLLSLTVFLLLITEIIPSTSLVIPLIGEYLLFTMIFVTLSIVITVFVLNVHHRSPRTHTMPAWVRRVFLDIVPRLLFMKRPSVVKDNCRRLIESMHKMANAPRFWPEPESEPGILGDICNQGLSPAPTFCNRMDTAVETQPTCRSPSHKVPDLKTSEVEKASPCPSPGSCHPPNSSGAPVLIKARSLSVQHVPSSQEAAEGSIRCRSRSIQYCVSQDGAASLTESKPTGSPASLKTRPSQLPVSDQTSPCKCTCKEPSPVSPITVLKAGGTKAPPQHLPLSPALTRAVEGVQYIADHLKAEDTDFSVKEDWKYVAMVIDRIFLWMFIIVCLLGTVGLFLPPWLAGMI
β2*-nAChR (Mus musculus, UniProt O70174+Q9ERK7), sequence (Q9ERK7 26-501): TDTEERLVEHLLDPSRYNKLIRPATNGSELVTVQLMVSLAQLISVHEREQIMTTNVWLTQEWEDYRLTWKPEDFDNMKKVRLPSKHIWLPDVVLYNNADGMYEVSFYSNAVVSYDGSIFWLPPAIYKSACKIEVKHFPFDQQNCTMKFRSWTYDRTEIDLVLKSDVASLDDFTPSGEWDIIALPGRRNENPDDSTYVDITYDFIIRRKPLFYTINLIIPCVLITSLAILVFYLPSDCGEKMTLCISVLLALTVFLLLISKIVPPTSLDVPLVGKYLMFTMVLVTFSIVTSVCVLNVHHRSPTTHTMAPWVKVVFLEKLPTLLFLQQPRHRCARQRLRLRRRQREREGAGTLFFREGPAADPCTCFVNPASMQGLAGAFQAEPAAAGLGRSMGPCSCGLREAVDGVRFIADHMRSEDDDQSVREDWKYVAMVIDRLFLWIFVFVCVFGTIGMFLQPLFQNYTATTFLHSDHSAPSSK

[9] = target: α7* receptors; details: read-out: Ki α7* receptors in rat brain; cited from earlier work
[10] = target: α4β2* receptors; details: read-out: Ki α4β2* receptors in rat brain; cited from earlier work
[11] = target: human α7; details: read-out: Ki human α7; cited from earlier work
[12] = target: human α4β2; details: read-out: Ki human α4β2; cited from earlier work
[13] = test system: [3H]noradrenaline release; details: read-out: EC50 [3H]noradrenaline release; cited from earlier work
[14] = test system: [3H]dopamine release; details: read-out: EC50 [3H]dopamine release; cited from earlier work
[15] = test system: human α7 nAChR; details: read-out: EC50 human α7 nAChR; cited from earlier work
[16] = test system: α4β2-nAChR; details: cited from earlier work
[17] = test system: β2*-nAChR; details: ref Luetje and Patrick, 1991; cited from earlier work
[18] = test system: β4*-nAChR; details: ref Luetje and Patrick, 1991; cited from earlier work
[19] = rats; ref Sloan et al., 1988; cited from earlier work

SMILES: O=c1c(Br)ccc2n1C[C@@H]1CNC[C@H]2C1 [3-bromocytisine]
- agonist efficacy at human α3β4-nAChR [1]: full agonist

SMILES: CNC1(C)C2CCC(C2)C1(C)C (stereo not drawn) [mecamylamine, reference compound]
- effect of mecamylamine alone on body temperature ([2]; 1 mg/kg ip, both mice strains): did not affect body temperature
- time of maximal hypothermia after 3-IC injection, mecamylamine pretreated ([2]; mecamylamine 1 mg/kg + 3-IC 0.2 mg/kg, DBA/2J): 20 min
- 3-IC-induced hypothermia after mecamylamine pretreatment ([2]; mecamylamine 1 mg/kg ip 10 min before 3-IC 0.2 mg/kg, DBA/2J): 1.13 ± 0.42 °C
- blockade of 3-IC-induced hypothermia ([3]; mecamylamine 1 mg/kg before 3-IC 0.2 mg/kg): complete
- 3-IC-induced hypothermia after mecamylamine pretreatment ([3]; mecamylamine 1 mg/kg ip 10 min before 3-IC 0.2 mg/kg): 0.13 ± 0.09 °C

SMILES: CN1CCC[C@H]1c1cccnc1 [nicotine]
- Ki [4]: 930 ± 100 nM
- difference in affinity for the two [125I]epibatidine binding sites [5]: 20 fold
- increase in [125I]α-bungarotoxin binding sites ([6]; caudate putamen): 14.2%
- increase in [125I]α-bungarotoxin binding sites ([6]; dentate gyrus): 12.6%
- increase in [125I]α-bungarotoxin binding sites ([6]; hippocampus): 33%
- increase in [125I]α-bungarotoxin binding sites ([6]; medial habenula): 22.6%
- increase in [125I]α-bungarotoxin binding sites ([6]; substantia nigra): 25.6%
- increase in [125I]α-bungarotoxin binding sites ([6]; zona incerta): 17.6%

SMILES: C[N+](C)(C)CCCCCC[N+](C)(C)C [hexamethonium, reference compound]
- effect of hexamethonium alone on body temperature ([2]; 10 mg/kg ip, DBA/2J, vs saline): modest, but statistically significant, hypothermia
- maximal 3-IC-induced hypothermia after hexamethonium pretreatment ([2]; hexamethonium 10 mg/kg 10 min before 3-IC 0.2 mg/kg, DBA/2J): 5.66 ± 0.45 °C
- blockade of 3-IC-induced hypothermia ([2]; hexamethonium 10 mg/kg, DBA/2J): 33%
- effect of hexamethonium alone on body temperature ([3]; 10 mg/kg ip, vs saline): did not affect body temperature
- blockade of 3-IC-induced hypothermia ([3]; hexamethonium 10 mg/kg): 60%
- maximal 3-IC-induced hypothermia after hexamethonium pretreatment ([3]; hexamethonium 10 mg/kg 10 min before 3-IC 0.2 mg/kg): 3.75 ± 0.67 °C

SMILES: O=c1cccc2n1C[C@@H]1CNC[C@H]2C1 [cytisine, reference compound]
- Ki [4]: 1580 ± 180 nM
- difference in affinity for the two [125I]epibatidine binding sites [5]: 60 fold
- Ki [7]: 9.7 ± 1.5 nM
- Ki [8]: 0.35 ± 0.01 nM
- Ki [9]: 8000 nM
- Ki [10]: 1.2 nM
- Ki [11]: 30000 nM
- Ki [12]: 0.6 nM
- EC50 [13]: 7400 nM
- EC50 [14]: 280 nM
- EC50 [15]: 83000 nM
- EC50 ([16]; read-out: EC50 high agonist sensitive form of α4β2-nAChR): 5 nM
- EC50 ([16]; read-out: EC50 low agonist sensitive form of α4β2-nAChR): 2000 nM
- agonist efficacy at β2*-nAChR [17]: partial agonist
- agonist efficacy at β4*-nAChR [18]: full agonist
- half-life [19]: longer half-life than nicotine
